In US20260224652A1, “ENRICHED PELARGONIUM GRAVEOLENS EXTRACTS FOR THE TREATMENT OF TRAUMATIC BRAIN INJURIES” (THE STATE OF ISRAEL, MINISTRY OF AGRICULTURE & RURAL …, priority 2023, published 2026):
Where a name gives a salt, the structure may show the parent alone.

Tests used:
[1] = target: acetyl choline esterase (Homo sapiens, UniProt P22303); details: in vitro; cited from earlier work
[2] = system: mice subjected to a closed head injury (CHI); test: Barnes maze test (learning) after CHI; type: in vivo; details: acquisition days 1-4, two weeks after CHI; oral gavage, 9 daily doses; Pg oil 100 mg/kg, citronellol 25 mg/kg, citronellyl formate 80 mg/kg
Description: (§1) Experimental CHI was induced by using a modified weight drop device (Chen et al; Flierl et al). Briefly, under 3% isoflurane anesthesia and supplementary oxygen (confirmed by the loss of response to pinch of paw), a midline longitudinal incision is performed, and the skull is exposed. A Teflon tipped cone (2 mm diameter) is placed upside down 2 mm lateral to the midline and 2 mm posterior to the bregma in the mid-coronal plane. The head is held in place and a 95 g weight is allowed to free-fall on the cone from a pre-established height, resulting in focal injury to the left hemisphere. The height of the free-fall weight is determined by the weight of the mouse and the desired CHI severity. In the present experiments, a free-fall of 6.5-7 cm was selected to induce a moderate neurological severity injury (NSS of 6-7 at 1 hr post injury). Sham mice were anesthetized and subjected to the same skin incision as described above, with no further trauma. […] At 1 h after CHI, the NSS is evaluated. […] Animals displaying apnea were monitored carefully and returned to their cage when adequate oxygenation was restored. • a. […]
The BM test is based on the instinct of the mouse to hide when exposed to environmental disturbances and is used to test spatial learning and memory. […] For the probe trial, the latency to reaching the escape box first is recorded. […]

[3] = system: mice subjected to a closed head injury (CHI); test: Neurological Severity Score (NSS) after closed head injury; type: in vivo; details: oral gavage, 9 daily doses over 2 weeks starting 24 h after CHI; Pg oil 100 mg/kg, citronellol 25 mg/kg, citronellyl formate 80 mg/kg; from day 7 up to 30 days after trauma
Description: as §1, with “injury).” for “injury). Sham mice were anesthetized and subjected to the same skin incision as described above, with no further trauma.”
The functional status of the mice was evaluated according to the neurobehavioral score, known as the Neurological Severity Score (NSS), which consists of several tests that assess reflexes, alertness, coordination, and motor abilities. […]
The neurological severity score (NSS) was determined for each of the experimental groups of mice (details as described above) starting 1 hour after the trauma.

[4] = system: mice subjected to a closed head injury (CHI); test: Y maze spatial memory test after CHI; type: in vivo; details: 24 days after trauma; oral gavage, 9 daily doses; Pg oil 100 mg/kg, citronellol 25 mg/kg, citronellyl formate 80 mg/kg
Description: as §1, with “severity.” for “severity. In the present experiments, a free-fall of 6.5-7 cm was selected to induce a moderate neurological severity injury (NSS of 6-7 at 1 hr post injury). Sham mice were anesthetized and subjected to the same skin incision as described above, with no further trauma.”
At 24 days post CHI, the Y maze spatial memory test was preformed to evaluate short term spatial memory. […] Short-term memory is reflected by the Preference index (PI), calculated as the amount of time spent in the new arm relative to the total amount of time spent in the “other” plus “new” arms. […]
The data was further analyzed by dividing the mice's performance into two groups: mice with (+) positive y-axis values (which represent a good spatial memory) and mice with negative (−) y-axis values (which represent spatial memory loss).

[5] = system: mice subjected to a closed head injury (CHI); test: Novel Object Recognition (NOR) test after CHI; type: in vivo; details: 22 days after trauma; 4 hours after object replaced; oral gavage, 9 daily doses; Pg oil 100 mg/kg, citronellol 25 mg/kg, citronellyl formate 80 mg/kg
Description: as §1, with “severity.” for “severity. In the present experiments, a free-fall of 6.5-7 cm was selected to induce a moderate neurological severity injury (NSS of 6-7 at 1 hr post injury). Sham mice were anesthetized and subjected to the same skin incision as described above, with no further trauma.”
The novel object recognition (NOR test) was performed to assess short term memory 22d after trauma. […] The cumulative time spent by each mouse exploring the objects was recorded manually for a total of 5 min. […] Exploration of the object was determined as such when the mouse's nose was pointed in the direction of the object and the mouse was actively investigating it, directly touching it or being close to it. […] The time spent exploring each of the objects (novel or familiar) was recorded and calculated as the percentage of time from a total of 5 min. […]

acetyl choline esterase, sequence (P22303 32-614): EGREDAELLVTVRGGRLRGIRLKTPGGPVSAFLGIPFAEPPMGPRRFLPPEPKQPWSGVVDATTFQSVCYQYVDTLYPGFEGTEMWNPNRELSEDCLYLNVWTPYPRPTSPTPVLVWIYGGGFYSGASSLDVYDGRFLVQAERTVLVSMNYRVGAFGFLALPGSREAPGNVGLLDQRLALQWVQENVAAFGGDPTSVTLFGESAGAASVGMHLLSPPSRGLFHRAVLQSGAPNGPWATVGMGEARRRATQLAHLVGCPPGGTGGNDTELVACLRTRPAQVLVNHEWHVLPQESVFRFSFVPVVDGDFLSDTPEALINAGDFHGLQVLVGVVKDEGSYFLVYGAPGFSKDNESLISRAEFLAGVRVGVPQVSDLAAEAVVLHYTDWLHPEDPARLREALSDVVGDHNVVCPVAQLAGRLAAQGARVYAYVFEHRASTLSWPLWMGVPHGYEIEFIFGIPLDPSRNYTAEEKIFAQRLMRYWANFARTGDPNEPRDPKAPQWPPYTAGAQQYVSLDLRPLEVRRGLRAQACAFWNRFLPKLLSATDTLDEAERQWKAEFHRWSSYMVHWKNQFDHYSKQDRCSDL

Row | SMILES | inhibition of acetyl choline esterase activity [1] | Barnes maze learning performance (latency to escape box) [2] | reduction in the neurological severity score (NSS) compared with vehicle treated CHI mice [3] | percent of mice that preferred the novel arm over the familiar arm (Y maze) [4] | preference/recognition of a novel object versus a familiar one (NOR) [5]
1 | CC(C)=CCC[C@H](C)CCO [(S) (−) citronellol] | inhibits in vitro the activity of the enzyme acetyl choline esterase |  |  |  | 
2 | CC(C)=CCCC(C)CCO (stereo not drawn) [citronellol] |  | significant improvement, but only on day 2 | significant reduction | About 54% | not able to prefer/recognize a novel object
3 | CC(C)=CCCC(C)CCOC=O (stereo not drawn) [citronellyl formate] |  | significant improvement, but only on day 2 | significant reduction | About 54% | not able to prefer/recognize a novel object
